Results filed as inconclusive are left out. Calls of active or inactive are those of the source.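 The calls were made as follows: active = Compounds that reduce signal, with fitted half-maximal dose at or under twice the top valid tested dose; inconclusive = Poor fit, or flat curve losing 30 to 70% of signal; inactive = Potency past limit, flat within 30%, or opposite direction.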

One assay can be described thus: viability loss in HEK293T cells – cell-based, ATP luminescence, cherry-pick samples, cytotoxicity control, dose response (AID 687005). The settings on record: HEK293T viability, ATP luminescence (CellTiter-Glo), 48 h; at 23.5 µM (top of the series).
For `O=C(C[C@H]1CC[C@@H]2[C@H](COC[C@@H](O)CN2Cc2cccc(C(F)(F)F)c2)O1)NCc1ccc(Cl)cc1`, the activity change, negative = cytotoxicity was 16.8% (inactive). With `N#Cc1ccc(-c2ccc3c(c2)[C@H]2[C@H](CCN2C(=O)Cc2ccccc2)[C@@H](CO)N3)cc1`, the activity change, negative = cytotoxicity was -73.4% (inactive).

On to `COCC(=O)N1C[C@H](C)[C@@H](OC)CN(C)C(=O)c2ccc(NS(C)(=O)=O)cc2OC[C@@H]1C`, for which the activity change, negative = cytotoxicity is 17.4% (inactive). The same measure, in the same setting: with `C[C@@H]1CN([C@H](C)CO)C(=O)Cc2cc(NC(=O)Nc3cccc4ccccc34)ccc2O[C@@H]1CN(C)Cc1ccc(C(=O)O)cc1` the figure was -26.3% (inactive); with `COc1ccc(NC(=O)N(C)C[C@@H]2OCCCC[C@@H](C)Oc3ccc(NC(=O)Nc4ccc5c(c4)OCO5)cc3C(=O)N([C@@H](C)CO)C[C@H]2C)cc1`, -17% (inactive); with `Cc1noc(C)c1S(=O)(=O)Nc1ccc2c(c1)CC(=O)N([C@@H](C)CO)C[C@@H](C)[C@@H](CN(C)S(=O)(=O)c1cccs1)O2`, -16.9% (inactive).

In the case of `CO[C@@H]1CN(C)C(=O)c2ccc(NC(C)=O)cc2OC[C@@H](C)N(C(=O)Cc2cccnc2)C[C@H]1C`, the activity change, negative = cytotoxicity was -26.2% (inactive).

The same assay, now with this note: HEK293T viability, ATP luminescence (CellTiter-Glo), 48 h; at 26 µM (top of the series).
With `CNC[C@@H]1OCCCC[C@@H](C)Oc2ccc(NS(=O)(=O)c3ccc(Cl)cc3)cc2C(=O)N([C@H](C)CO)C[C@H]1C`, the activity change, negative = cytotoxicity was -31.3% (inactive).

For the compound `CCCNC(=O)Nc1ccc2c(c1)C(=O)N(C)C[C@@H](OC)[C@@H](C)CN(C(=O)CC)[C@H](C)CO2`, the activity change, negative = cytotoxicity was -2.92% (inactive). In the case of `CC(=O)NNC(=O)CSc1nnc(-c2ccccc2)c(-c2ccccc2)n1`, the activity change, negative = cytotoxicity is -4.35% (inactive). Turning to `CO[C@H](CN(C)Cc1cc(F)ccc1F)[C@@H](C)CN([C@@H](C)CO)S(=O)(=O)c1ccc(F)cc1`, the activity change, negative = cytotoxicity is 14.8% (inactive).

For `N#Cc1ccc(C23CC4(C2)[C@H](CN(Cc2ccc(C(F)(F)F)cc2)[C@@H]4c2ccccc2)C3c2ccc(C(F)(F)F)cc2)cc1` (stereo partly drawn), the activity change, negative = cytotoxicity was 10.4% (inactive). Consider `O=C(CSc1ncnc2c1cnn2-c1ccc(Cl)cc1)NCc1ccc2c(c1)OCO2`, for which the activity change, negative = cytotoxicity was -9.56% (inactive). On to `C[C@@H]1CN([C@H](C)CO)C(=O)c2cc(NC(=O)Nc3cccc4ccccc34)ccc2O[C@@H](C)CCCCO[C@@H]1CN(C)Cc1ccc2c(c1)OCO2`, for which the activity change, negative = cytotoxicity is -13.2% (inactive). Turning to `C[C@@H]1CN([C@@H](C)CO)C(=O)c2cc(NC(=O)C3CC3)ccc2O[C@H]1CN(C)CC1CCCCC1`, the activity change, negative = cytotoxicity was -17.8% (inactive). Turning to `Cc1ccc(NC(=O)[C@H](C)NC(=O)C2CCN(C(=O)[C@@H](N)C(C)C)CC2)cc1`, the activity change, negative = cytotoxicity was -1.97% (inactive). As to `CCOC(=O)NC(=S)Nc1ccc(C(C)(C)C)cc1`, the activity change, negative = cytotoxicity was -11.3% (inactive). `O=C(C[C@H]1C[C@@H]2c3cc(NC(=O)CC4CC4)ccc3O[C@@H]2[C@@H](CO)O1)NCc1cccc(F)c1`: the activity change, negative = cytotoxicity is 35.8% (inactive). On to `CC=Cc1ccc2n(c1=O)C[C@H]1[C@H](CO)[C@@H](C(=O)N3CCc4ccccc4C3)N(C(=O)C3CC3)[C@@H]21` (mixture of isomers), for which the activity change, negative = cytotoxicity was -9.72% (inactive).

Regarding `COCCNC(=O)C[C@@H]1C[C@@H]2c3cc(NC(=O)C4CCOCC4)ccc3O[C@@H]2[C@@H](CO)O1`, the activity change, negative = cytotoxicity was -3.7% (inactive).

For the compound `CO[C@@H](CN(C)Cc1ccc2c(c1)OCO2)[C@@H](C)CN(C(=O)c1ccccc1)[C@H](C)CO`, the activity change, negative = cytotoxicity is 29.3% (inactive). As for `C[C@H]1CN([C@@H](C)CO)C(=O)Cc2cc(NS(=O)(=O)c3cn(C)cn3)ccc2O[C@@H]1CN(C)Cc1ccc(Oc2ccccc2)cc1`, the activity change, negative = cytotoxicity is 28.9% (inactive).

As for `CC(C)NC(=O)N(C)C[C@H]1OCCCC[C@@H](C)Oc2ccc(NC(=O)c3ccccc3)cc2C(=O)N([C@@H](C)CO)C[C@@H]1C`, the activity change, negative = cytotoxicity was -10.9% (inactive).

Turning to `C[C@@H]1CN([C@@H](C)CO)C(=O)c2cc(NC(=O)C3CC3)ccc2O[C@H]1CN(C)Cc1ccc2c(c1)OCO2`, the activity change, negative = cytotoxicity is 9.22% (inactive). Regarding `COc1cc(NC(=O)CN2CCN(S(=O)(=O)c3ccc(C(C)C)cc3)CC2)cc(OC)c1`, the activity change, negative = cytotoxicity is 2.05% (inactive). With `CC1=C(C(=O)OCc2ccccc2)C(c2ccccc2)NC(=O)N1` (stereo not drawn), the activity change, negative = cytotoxicity was 13.2% (inactive).

Turning to `O=C(CCN1CCCCC1)NCC[C@@H]1CC[C@H](NC(=O)c2ccc(F)cc2)[C@@H](CO)O1`, the activity change, negative = cytotoxicity was 9.77% (inactive). With `Cc1ccc(C)c(NC(=O)C2CCCN2C(=O)NC2CCCCC2)c1` (stereo not drawn), the activity change, negative = cytotoxicity was 25.9% (inactive). With `Cc1noc(C)c1S(=O)(=O)N(C)C[C@H]1OCCCC[C@@H](C)Oc2ccc(NC(=O)CCCCCC(=O)Nc3ccccc3N)cc2C(=O)N([C@@H](C)CO)C[C@@H]1C`, the activity change, negative = cytotoxicity is -1.73% (inactive). For `COCC(=O)Nc1ccc2c(c1)C(=O)N(C)C[C@H](OC)[C@@H](C)CN(C(=O)c1ccccc1)[C@@H](C)CO2`, the activity change, negative = cytotoxicity was 13.6% (inactive). On to `C[C@H](CO)N1C[C@H](C)[C@@H](CN(C)Cc2ccc(-c3ccccc3)cc2)Oc2ccc(NC(=O)Nc3ccc(C(F)(F)F)cc3)cc2C1=O`, for which the activity change, negative = cytotoxicity was -3.25% (inactive). On to `C[C@H](CO)N1C[C@H](C)[C@H](CN(C)C(=O)Nc2cccc(F)c2)Oc2ncc(C#CCN(C)C)cc2C1=O`, for which the activity change, negative = cytotoxicity was -20.2% (inactive). Same read-out and setting: to `COc1ccc(CN(C)C[C@@H]2Oc3c(NC(=O)Nc4cccc5ccccc45)cccc3C(=O)N([C@@H](C)CO)C[C@@H]2C)cc1` belongs -9.75% (inactive); to `CN1[C@H](C(=O)N2CCc3ccccc3C2)[C@@H](CO)[C@@H]2Cn3c(ccc(-c4cccnc4)c3=O)[C@@H]21`, 7.82% (inactive). Consider `C[C@H]1CN([C@@H](C)CO)C(=O)c2cc(C#CC3(O)CCCC3)cnc2O[C@@H]1CN(C)Cc1cccnc1`, for which the activity change, negative = cytotoxicity is 13.8% (inactive). In the case of `C[C@H](O)C#Cc1ccc2c(c1)O[C@H](CN(C)C(=O)C1CCCCC1)[C@H](C)CN([C@@H](C)CO)S2(=O)=O`, the activity change, negative = cytotoxicity was 34.3% (inactive).

As to `C/C=C/c1ccc([C@@H]2[C@@H](C#N)N(S(=O)(=O)c3cccc(F)c3)[C@@H]2CO)cc1`, the activity change, negative = cytotoxicity was 4.72% (inactive). As to `O=C(C[C@H]1CC[C@@H]2[C@H](COC[C@H](O)CN2CC2CCOCC2)O1)NCc1ccc(Cl)cc1`, the activity change, negative = cytotoxicity was 19% (inactive). Consider `O=C(COc1ccc2c(c1)CCC2)NCc1ccc(Cl)cc1`, for which the activity change, negative = cytotoxicity was 18.5% (inactive).

Regarding `COc1cc(C(=O)Oc2ccccc2N)cc(OC)c1OC`, the activity change, negative = cytotoxicity was 1.38% (inactive).

On to `COCC(=O)N(C)C[C@@H]1Oc2ncc(C#CCC3CCCC3)cc2C(=O)N([C@H](C)CO)C[C@H]1C`, for which the activity change, negative = cytotoxicity was 57.2% (inactive). Consider `CC(C)NC(=O)Nc1ccc2c(c1)C(=O)N([C@H](C)CO)C[C@H](C)[C@H](CN(C)Cc1ccncc1)OCCCC[C@H](C)O2`, for which the activity change, negative = cytotoxicity was -57.3% (inactive). Consider `CO[C@@H]1CN(C)C(=O)c2cc(NS(=O)(=O)c3cccc(C)c3)ccc2OC[C@@H](C)NC[C@H]1C`, for which the activity change, negative = cytotoxicity was 4.92% (inactive). On to `C[C@H]1CN([C@@H](C)CO)C(=O)CCCn2cc(nn2)CO[C@@H]1CN(C)Cc1ccc(C(F)(F)F)cc1`, for which the activity change, negative = cytotoxicity is -2.59% (inactive).

In the case of `CC(C)NC(=O)Nc1ccc2c(c1)C(=O)N([C@@H](C)CO)C[C@@H](C)[C@@H](CN(C)C(=O)c1ccncc1)OCCCC[C@@H](C)O2`, the activity change, negative = cytotoxicity is -15.2% (inactive). Take `Cc1ccc(S(=O)(=O)N2C[C@@H](O)COC[C@@H]3O[C@H](CC(=O)NCc4ccc5c(c4)OCO5)CC[C@H]32)cc1`: the activity change, negative = cytotoxicity is 46.9% (inactive). Turning to `CCC(=O)Nc1ccc2c(c1)C(=O)N(C)C[C@@H](OC)[C@H](C)CN[C@@H](C)CO2`, the activity change, negative = cytotoxicity was 4.18% (inactive). Turning to `O=C(NCCc1ccccc1)[C@@H]1[C@@H](CO)[C@@H]2Cn3c(cccc3=O)[C@H]1N2C(=O)C1CCC1`, the activity change, negative = cytotoxicity is 8.28% (inactive). For `C[C@@H]1CCCCO[C@H](CN(C)C(=O)c2ccccc2)[C@@H](C)CN([C@@H](C)CO)C(=O)c2cc(NC(=O)c3ccccc3)ccc2O1`, the activity change, negative = cytotoxicity is 5.72% (inactive). As for `Cc1c(C(=O)NC(=S)Nc2ccccc2N2CCCC2)cccc1[N+](=O)[O-]`, the activity change, negative = cytotoxicity is -4.96% (inactive). The same measure, in the same setting: to `CC(C)NC(=O)Nc1ccc2c(c1)CC(=O)N([C@@H](C)CO)C[C@@H](C)[C@@H](CN(C)S(=O)(=O)c1ccc(Cl)cc1)O2` belongs 6.41% (inactive); to `O=C(C[C@@H]1CC[C@@H]2[C@H](COC[C@H](O)CN2Cc2cccc(C(F)(F)F)c2)O1)NCc1ccc(Cl)cc1`, 9.32% (inactive).

As to `COc1cccc(CNC(=O)COc2ccc(C(=O)c3ccccc3)cc2)c1`, the activity change, negative = cytotoxicity was 10% (inactive). Regarding `C[C@@H]1CN([C@@H](C)CO)C(=O)CCCn2cc(nn2)CO[C@@H]1CN(C)C(=O)NC1CCCC1`, the activity change, negative = cytotoxicity was 5.64% (inactive).

Consider `O=C(NC(=S)Nc1ccccc1N1CCOCC1)c1ccccc1F`, for which the activity change, negative = cytotoxicity was -0.484% (inactive).

The assay is the same for the next values; noted with them: HEK293T viability, ATP luminescence (CellTiter-Glo), 48 h; at 28.5 µM (top of the series).
`CNC(=O)CN(c1ccccc1)S(=O)(=O)c1ccc(F)cc1`: the activity change, negative = cytotoxicity is -7.63% (inactive).

The assay is the same for the next values; noted with them: HEK293T viability, ATP luminescence (CellTiter-Glo), 48 h; at 38 µM (top of the series).
In the case of `CC(C)C(=O)N1CCC1(C)C(=O)Nc1ccccc1C(C)(C)C` (stereo not drawn), the activity change, negative = cytotoxicity is -4.57% (inactive). For `CCCC(C)(C)C(=O)N1CCC1(C)C(=O)Nc1ccc(C)cc1` (stereo not drawn), the activity change, negative = cytotoxicity was -11.3% (inactive).

The values are drawn from PubChem BioAssay AID687005 (Broad Institute, 2013).
